US20140255402A1 (priority 2013, published 2014)

Test system: NALM/6 cells
Set-up: species or system mice
Conditions: mouse, in vivo

SMILES: Nc1ccn([C@@H]2O[C@H](CO)[C@@H](O)[C@@H]2O)c(=O)n1 [Ara-C, Cytarabine]
- Survival difference as compared to placebo: no significant survival difference
